Data on two compounds can be found in PMC8664216 (PLoS Neglected Tropical Diseases, 2021).

For data set [1], the system named is CHIKV-LR. As to the kind of experiment: Infectious particle production (plaque assay) in siRNA knockdown Huh7 cells. To be noted: CHIKV MOI 10, 10 μM tomatidine, 9 hpi. It is filed as cell-based, Chikungunya virus.
In data set [2] the test system is CHIKV-LR. Kind of data set: Western blot of CHIKV nsP2, E1 and capsid proteins. To be noted: 9 hpi. It is filed as cell-based, Chikungunya virus.
Another data set relates to p62. As to the kind of experiment: Western blot of p62 in mock- or CHIKV-infected Huh7 cells. It is filed as cell-based, human. To be noted: 10 μM tomatidine, 9 hpi.
Data set [3] relates to CHIKV-LR. Kind of data set: Time-trace and time-chase: intracellular CHIKV RNA copies by Q-RT-PCR. Format: cell-based, Chikungunya virus. To be noted: Huh7 cells; for Intracellular viral RNA load: MOI 10, 10 μM tomatidine at time of infection; for Reduction of intracellular RNA load compared to EtOH control: MOI 10, 10 μM tomatidine.
Data set [4] concerns CHIKV in vitro transcribed RNA (CHIK-LR). As to the kind of experiment: Virus cell entry-bypass assay: electroporation of in vitro transcribed CHIKV RNA, plaque assay. It is filed as cell-based, Chikungunya virus. To be noted: Huh7 cells electroporated with CHIKV RNA, 10 μM tomatidine, 16 h post-transfection.
Data set [5] has as its system CHIKV-LR trans-replicase system. As to the kind of experiment: CHIKV trans-replicase system, tomato marker by flow cytometry. Format: cell-based, Chikungunya virus. To be noted: for Percentage of fluorescent tomato marker expressing cells / Reduction of marker expressing cells compared to EtOH control: Huh7 cells; for Percentage of fluorescent tomato marker expressing cells: read at 24 h, EtOH control 8.18±0.45%.

In another data set the test system is DENV-2. To be noted: DENV-2, in vitro; cited from earlier work.
Data set [6] relates to Huh7 cells. To be noted: cited from earlier work.
Data set [7] deals with CHIKV-LR. To be noted: in vitro; cited from earlier work.
The next data set concerns CD98. Kind of data set: Western blot of CD98 in mock- or CHIKV-infected Huh7 cells. It is filed as cell-based, human. To be noted: 10 μM tomatidine, 9 hpi. A general note: In western blotting, separated proteins are transferred to a membrane and probed.
The test system of another data set is TMX2. Kind of data set: Western blot of TMX2 in mock- or CHIKV-infected Huh7 cells. It is filed as cell-based, human. To be noted: 10 μM tomatidine, 9 hpi.
Data set [8] deals with Huh7 cells. Kind of data set: ATPLite cytotoxicity assay. To be noted: 7 μM ivermectin, 24 h. For orientation: ATP-based viability assays read luminescence as a measure of living cells.
Setting [9] is: Huh7, MOI 10, 10 μM tomatidine added at 4 hpi.
Where [10] appears, read: Huh7, MOI 10, 10 μM tomatidine added at 6 hpi.
The mark [11] stands for this setting: Huh7, MOI 10, 10 μM tomatidine added simultaneous to infection.
[12] abbreviates: CHIKV-infected (MOI 10) Huh7 cells.

As usually defined, the EC50 is the concentration that produces a half-maximal response. On to `C[C@H]1CC[C@]2(NC1)O[C@H]1C[C@H]3[C@@H]4CC[C@H]5C[C@@H](O)CC[C@]5(C)[C@H]4CC[C@]3(C)[C@H]1[C@@H]2C` [tomatidine, Tomatidine], for which the “Inhibition of infectious particle production compared to EtOH control” value in the data set with CHIKV-LR [1] (Huh7 cells with CD98 siRNA knock-down) is given as 91.68%; in the data set on CHIKV-LR [1] (Huh7 cells with p62 knock-down (siRNA #1)) it was 86.37%; in the data set with CHIKV-LR [1] (Huh7 cells with p62 knock-down (siRNA #4)), 90.82%. Besides, the entries for the “C (capsid) expression compared to EtOH control” value with CHIKV-LR [2] (setting [9]), in the data set with CHIKV-LR [2] (setting [10]) and in the data set with CHIKV-LR [2] (setting [11]) were 50%, 60% and 46%, respectively. The “E1 expression compared to EtOH control” value is 30% in the data set on CHIKV-LR [2] (setting [9]), 40% in the data set on CHIKV-LR [2] (setting [10]) and 18% in the data set with CHIKV-LR [2] (setting [11]). The “nsP2 expression compared to EtOH control” value in the data set with CHIKV-LR [2] (setting [9]) was found to be 50%; with CHIKV-LR [2] (setting [10]), 60%; in the data set with CHIKV-LR [2] (setting [11]), 50%. Besides, the “Increase of p62 expression compared to solvent control” value with p62 (setting [12]) is reported as 1.8 fold; in the data set on p62 (mock-infected Huh7 cells) it was 1.7 fold. Moreover, the “Intracellular viral RNA load” value is ~ 7 Log10 copies in the data set with CHIKV-LR [3] (1 and 2 hpi (all experimental conditions)); 7.8±0.1 Log10 copies with CHIKV-LR [3] (4 hpi, EtOH 8.0±0.2); 9.2±0.1 Log10 copies in the data set with CHIKV-LR [3] (6 hpi, EtOH 9.7±0.1); 9.9±0.1 Log10 copies with CHIKV-LR [3] (8 hpi, EtOH 10.3±0.0). The results for the “Reduction of intracellular RNA load compared to EtOH control” value in the data set on CHIKV-LR [3] (6 hpi) and in the data set on CHIKV-LR [3] (8 hpi) were 74% and 62%, respectively. The “Intracellular viral RNA copy number vs absence of tomatidine (time-chase)” value with CHIKV-LR [3] (MOI 10, tomatidine added at 6 hpi, RNA at 8 and 10 hpi, without tomatidine 10.3±0.0 and 10.6±0.0 Log10) was “Comparable results”. The “Reduction of virus titer” value in data set [4] is recorded as 2.6 log. In data set [4] (EtOH control 5.0±0.1), this compound returned an Infectious virus titer of 2.4±0.3 Log10 PFU/mL. Also, the “Percentage of fluorescent tomato marker expressing cells” value in data set [5] (10 μM tomatidine added 1 h post-transfection) was 4.4±0.69%. Also, the “Reduction of marker expressing cells compared to EtOH control” value in data set [5] (10 μM tomatidine, 24 h post-transfection) was 46%. The EC50 in the data set on DENV-2 was 0.82 µM; with CHIKV-LR [7] it was 1.3 µM. Moreover, in the data set on Huh7 cells [6], the “Highest non-toxic yet antiviral dose” value is 10 µM. The “Increase of CD98 expression compared to solvent control” value with CD98 (setting [12]) is 1.4 fold; in the data set on CD98 (mock-infected Huh7 cells) it was 1.6 fold. For the same compound, in the data set on TMX2, the “Change in protein expression of TMX2” value is “did not induce any significant change”.
ivermectin: the “Percentage of fluorescent tomato marker expressing cells” value in data set [5] (7 μM ivermectin added 1 h post-transfection) was 2.19±0.5%. For the same compound, in data set [5] (7 μM ivermectin, 24 h post-transfection), the “Reduction of marker expressing cells compared to EtOH control” value turned out to be 73%. Further, in data set [5] (marker-positive Huh7 cells, 7 μM ivermectin, 24 h post-transfection), the “MFI of tomato marker relative to EtOH control” value is on record as 0.4±0.06. The “Cytotoxicity of the selected concentration” value with Huh7 cells [8] is “non-toxic”.
